Values of other authors, collected in patent publication US20050042178A1, “Microparticles containing the CGRP-antagonist 1-[N2-[3,5-dibrom-N-[[4-(3,4-dihydro-2(1H)-oxoquinazoline-3-yl)-1-piperidinyl]carbonyl]-D-tyrosyl]-L-lysyl]-4-(4-pyridinyl)-piperazine, process for preparing and the use thereof as inhalation powder” (Boehringer Ingelheim International GmbH, priority 2003, published 2005).

Conditions: conventional formulations

For NCCCC[C@H](NC(=O)[C@@H](Cc1cc(Br)c(O)c(Br)c1)NC(=O)N1CCC(N2Cc3ccccc3NC2=O)CC1)C(=O)N1CCN(c2ccncc2)CC1 [A, 1-[N^2-[3,5-dibromo-N-[[4-(3,4-dihydro-2(1H)-oxoquinazolin-3-yl)-1-piperidinyl]carbonyl]-D-tyrosyl]-L-lysyl]-4-(4-pyridinyl)-piperazine], the oral bioavailability is listed as “very limited”.
